Experimental data: the supplement of paper PMC11451515

Experiments:
Settings in all cases: 48 h
SEM cells [1] = test: cell viability relative to DMSO control; higher = less cytotoxic
In short: (§1)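 Library compounds in DMSO were pin-dosed in an 11-point threefold series (47 μM to 0.79 nM) onto leukemia cells in 1536-well plates (5 μl). Plates held 500 cells/well of NOMO1 or SEM or 1000 cells/well of P12-Ichikawa, each adapted for at least four passages in each medium. Luminescence was read with CellTiter-Glo One after 48 h at 37°C. Viability means the per-plate percentage relative to DMSO wells, using cell-free wells as background.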

NOMO1 [2] = test: AUC of viability dose-response curve (% viability x log10 dose units); higher = less sensitive
In short: (§2)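 Leukemia cells adapted to each medium were seeded in 1536-well plates (500 or 1000 cells/well). They were dosed with library compounds in DMSO at 11 threefold doses, 47 μM to 0.79 nM, for 48 h at 37°C. CellTiter-Glo One luminescence was normalised per plate to DMSO and cell-free wells. Area under the curve was integrated by trapezoidal rule over log10 doses on a four-parameter log-logistic fit; curves exceeding full viability were scaled and curves failing quality control removed.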

P12-Ichikawa [3] = test: as above
In short: as §2

SEM cells [4] = test: as above
In short: as §2

NOMO1 [5] = test: cell viability relative to DMSO control; higher = less cytotoxic
In short: as §1

P12-Ichikawa [6] = test: as above
In short: as §1

C[C@@H]1O[C@@H](O[C@H]\2CC[C@]\3(C)[C@@H]4CC[C@]5(C)[C@@H](CC[C@@]5(O)[C@H]4CCC3=C2)C/6=C/OC(=O)/C=C6)[C@H](O)[C@H](O)[C@@H]1O
SEM cells [1], HPLM + 10% dialyzed FBS
Settings	cell viability [%]
0.000781 µM	124
0.00234 µM	121
0.00702 µM	109
0.0211 µM	79.3
0.0632 µM	11.6
0.19 µM	12.5
0.569 µM	9.21
1.71 µM	8.61
5.12 µM	8.87
15.4 µM	7.79
46.1 µM	4.4

AUC of viability dose-response curve
Settings	NOMO1 [2]	P12-Ichikawa [3]	SEM cells [4]
HPLM + 10% dialyzed FBS	187	181	173
RPMI 5 mM glucose + 10% FBS	214	197	193
RPMI 5 mM glucose + 10% dialyzed FBS	193	173	186

CC(C)(O)CNc1nc(Nc2ccnc(C(F)(F)F)c2)nc(-c2cccc(C(F)(F)F)n2)n1
cell viability [%]
Settings	NOMO1 [5]	P12-Ichikawa [6]	SEM cells [1]
HPLM + 10% dialyzed FBS, 0.000781 µM	99.2	101	106
HPLM + 10% dialyzed FBS, 0.00234 µM	99.4	103	89
HPLM + 10% dialyzed FBS, 0.00702 µM	131	107	101
HPLM + 10% dialyzed FBS, 0.0211 µM	120	107	105
HPLM + 10% dialyzed FBS, 0.0632 µM	146	106	91.3
HPLM + 10% dialyzed FBS, 0.19 µM	122	102	109
HPLM + 10% dialyzed FBS, 0.569 µM	134	99.4	110
HPLM + 10% dialyzed FBS, 1.71 µM	114	104	93.5
HPLM + 10% dialyzed FBS, 5.12 µM	99.4	8.99	67.2
HPLM + 10% dialyzed FBS, 15.4 µM	85.8	10.4	33.1
HPLM + 10% dialyzed FBS, 46.1 µM	72.8	15.2	24.6
RPMI 5 mM glucose + 10% FBS, 0.000781 µM	112	103	99.5
RPMI 5 mM glucose + 10% FBS, 0.00234 µM	115	115	84.7
RPMI 5 mM glucose + 10% FBS, 0.00702 µM	102	100	119
RPMI 5 mM glucose + 10% FBS, 0.0211 µM	109	114	107
RPMI 5 mM glucose + 10% FBS, 0.0632 µM	118	104	80.7
RPMI 5 mM glucose + 10% FBS, 0.19 µM	106	118	122
RPMI 5 mM glucose + 10% FBS, 0.569 µM	103	111	117
RPMI 5 mM glucose + 10% FBS, 1.71 µM	123	107	64.7
RPMI 5 mM glucose + 10% FBS, 5.12 µM	43.7	10.2	31.3
RPMI 5 mM glucose + 10% FBS, 15.4 µM	50.3	10.7	15.8
RPMI 5 mM glucose + 10% FBS, 46.1 µM	48.7	13.2	14.6
RPMI 5 mM glucose + 10% dialyzed FBS, 0.000781 µM	105	99.6	105
RPMI 5 mM glucose + 10% dialyzed FBS, 0.00234 µM	110	106	89.8
RPMI 5 mM glucose + 10% dialyzed FBS, 0.00702 µM	120	115	112
RPMI 5 mM glucose + 10% dialyzed FBS, 0.0211 µM	115	117	107
RPMI 5 mM glucose + 10% dialyzed FBS, 0.0632 µM	121	123	106
RPMI 5 mM glucose + 10% dialyzed FBS, 0.19 µM	117	109	114
RPMI 5 mM glucose + 10% dialyzed FBS, 0.569 µM	109	117	122
RPMI 5 mM glucose + 10% dialyzed FBS, 1.71 µM	114	118	88.7
RPMI 5 mM glucose + 10% dialyzed FBS, 5.12 µM	56.3	17.5	44.6
RPMI 5 mM glucose + 10% dialyzed FBS, 15.4 µM	53.2	21.5	21.4
RPMI 5 mM glucose + 10% dialyzed FBS, 46.1 µM	62.5	26.8	14.7

AUC of viability dose-response curve
Settings	NOMO1 [2]	P12-Ichikawa [3]	SEM cells [4]
HPLM + 10% dialyzed FBS	442	371	408
RPMI 5 mM glucose + 10% FBS	409	369	363
RPMI 5 mM glucose + 10% dialyzed FBS	418	381	382

COc1cc2nc(-c3ccc(N4CCN(C)CC4)cc3)nc(NCCN3CCOCC3)c2cc1OC
cell viability [%]
Settings	NOMO1 [5]	P12-Ichikawa [6]	SEM cells [1]
HPLM + 10% dialyzed FBS, 0.000781 µM	115	111	104
HPLM + 10% dialyzed FBS, 0.00234 µM	112	121	111
HPLM + 10% dialyzed FBS, 0.00702 µM	110	109	95.7
HPLM + 10% dialyzed FBS, 0.0211 µM	125	115	102
HPLM + 10% dialyzed FBS, 0.0632 µM	113	109	112
HPLM + 10% dialyzed FBS, 0.19 µM	97.9	110	44.1
HPLM + 10% dialyzed FBS, 0.569 µM	48.8	81.7	11.3
HPLM + 10% dialyzed FBS, 1.71 µM	35	57.9	8.34
HPLM + 10% dialyzed FBS, 5.12 µM	22.6	50	4.72
HPLM + 10% dialyzed FBS, 15.4 µM	18.8	23.2	4.43
HPLM + 10% dialyzed FBS, 46.1 µM	1.8	3.38	2.62
RPMI 5 mM glucose + 10% FBS, 0.000781 µM	102	113	108
RPMI 5 mM glucose + 10% FBS, 0.00234 µM	103	120	115
RPMI 5 mM glucose + 10% FBS, 0.00702 µM	99	108	91
RPMI 5 mM glucose + 10% FBS, 0.0211 µM	94.5	113	111
RPMI 5 mM glucose + 10% FBS, 0.0632 µM	98.7	116	107
RPMI 5 mM glucose + 10% FBS, 0.19 µM	100	111	107
RPMI 5 mM glucose + 10% FBS, 0.569 µM	84	104	41.1
RPMI 5 mM glucose + 10% FBS, 1.71 µM	47	67	14.1
RPMI 5 mM glucose + 10% FBS, 5.12 µM	18.1	36.7	7.04
RPMI 5 mM glucose + 10% FBS, 15.4 µM	9.07	5.75	3.02
RPMI 5 mM glucose + 10% FBS, 46.1 µM	2.08	2.84	2.56
RPMI 5 mM glucose + 10% dialyzed FBS, 0.000781 µM	114	113	114
RPMI 5 mM glucose + 10% dialyzed FBS, 0.00234 µM	111	108	106
RPMI 5 mM glucose + 10% dialyzed FBS, 0.00702 µM	103	118	107
RPMI 5 mM glucose + 10% dialyzed FBS, 0.0211 µM	107	103	102
RPMI 5 mM glucose + 10% dialyzed FBS, 0.0632 µM	111	106	111
RPMI 5 mM glucose + 10% dialyzed FBS, 0.19 µM	95	106	81.7
RPMI 5 mM glucose + 10% dialyzed FBS, 0.569 µM	63.7	96.3	29.3
RPMI 5 mM glucose + 10% dialyzed FBS, 1.71 µM	28.3	65.8	10.7
RPMI 5 mM glucose + 10% dialyzed FBS, 5.12 µM	11.1	22.5	5.08
RPMI 5 mM glucose + 10% dialyzed FBS, 15.4 µM	7.69	5.42	3.57
RPMI 5 mM glucose + 10% dialyzed FBS, 46.1 µM	1.71	2.71	2.59

AUC of viability dose-response curve
Settings	NOMO1 [2]	P12-Ichikawa [3]	SEM cells [4]
HPLM + 10% dialyzed FBS	300	340	248
RPMI 5 mM glucose + 10% FBS	336	350	290
RPMI 5 mM glucose + 10% dialyzed FBS	302	345	271
